Where a name gives a salt, the structure may show the parent alone.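 Exposure lasted 48 hours, with cells grown in 96-well plates and compounds tested at five concentrations. GI50: concentration for 50% inhibition of growth.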 Activity calls are given as the source filed them. Rule as the data show it: active = GI50 up to about 1.1 µM and inactive = higher.
How the values were obtained:
Experiment in all cases: NCI tumour cell line growth inhibition, 48 h
[1] = tested on: A549
[2] = tested on: COLO 205
[3] = tested on: DU-145
[4] = tested on: EKVX
[5] = tested on: HOP-62
[6] = tested on: HT-29
[7] = tested on: IGROV-1
[8] = tested on: MDA-N
[9] = tested on: NCI-H460
[10] = tested on: OVCAR-5
[11] = tested on: PC-3
[12] = tested on: RXF 393
[13] = tested on: SK-MEL-2
[14] = tested on: SN12C
[15] = tested on: SNB-75
[16] = tested on: T47D
[17] = tested on: U-251

Measured: GI50

C#CCOCCCC(=O)O
inactive: [1] > 100 µM | [2] > 100 µM | [3] > 100 µM | [4] > 100 µM | [5] > 100 µM | [6] > 100 µM | [7] > 100 µM | [8] > 100 µM | [9] > 100 µM | [10] > 100 µM | [11] > 100 µM | [12] > 100 µM | [13] > 100 µM | [14] > 100 µM | [15] > 100 µM | [16] > 100 µM | [17] > 100 µM

CO/N=C1\CC(NC(=O)CNC(=O)OC(C)(C)C)c2ccsc21 (centres undefined)
inactive: [1] > 100 µM | [2] > 100 µM | [3] > 100 µM | [4] > 100 µM | [5] > 100 µM | [6] > 100 µM | [7] > 100 µM | [8] 49.2 µM | [9] > 100 µM | [10] > 100 µM | [11] > 100 µM | [12] > 100 µM | [13] > 100 µM | [14] > 100 µM | [15] 53.1 µM | [16] > 100 µM | [17] > 100 µM

COc1cccc(N(CN2CC=CC2=O)C(C)=O)c1
inactive: [1] > 100 µM | [2] > 100 µM | [3] > 100 µM | [4] > 100 µM | [5] > 100 µM | [6] > 100 µM | [7] > 100 µM | [8] > 100 µM | [9] > 100 µM | [10] > 100 µM | [11] > 100 µM | [12] > 100 µM | [13] > 100 µM | [14] > 100 µM | [15] > 100 µM | [16] > 100 µM | [17] > 100 µM

CC(=O)OCC1OC(n2cnc3nc(Br)[nH]c(=O)c32)C(OC(C)=O)C1OC(C)=O (centres undefined)
inactive: [1] > 100 µM | [2] > 100 µM | [3] > 100 µM | [4] > 100 µM | [5] > 100 µM | [6] > 100 µM | [7] > 100 µM | [8] > 100 µM | [9] > 100 µM | [10] > 100 µM | [11] > 100 µM | [12] > 100 µM | [13] > 100 µM | [14] > 100 µM | [15] 70.3 µM | [16] > 100 µM | [17] > 100 µM

CNC(=O)CCCN(C)C(=O)CCCCC(=O)N(C)C
inactive: [1] > 57.1 µM | [2] > 57.7 µM | [3] > 58.5 µM | [4] > 57.9 µM | [5] > 100 µM | [6] > 57.1 µM | [7] > 58.7 µM | [8] > 60.8 µM | [9] > 56 µM | [10] > 100 µM | [11] > 54.3 µM | [12] > 100 µM | [13] > 50.9 µM | [14] > 61.1 µM | [15] > 53.8 µM | [16] 35 µM | [17] > 58.2 µM

CCOC(=O)Cn1c(=O)c2cc(-c3ccccc3)cc3c(Cl)nc4c(OC)c(OC)cc1c4c32
inactive: [1] 28 µM | [2] 50.6 µM | [3] 21.4 µM | [4] 12.4 µM | [5] 28.8 µM | [6] 13.8 µM | [7] 13 µM | [8] 17.7 µM | [9] 17.1 µM | [10] > 100 µM | [11] 15.9 µM | [12] 14.8 µM | [13] 15 µM | [14] 16.2 µM | [15] 15.3 µM | [16] 16 µM | [17] 31.2 µM

COc1cc(/C=C2\N=C(c3ccccc3)N(/N=C/c3cc4cc(C)ccc4nc3Cl)C2=O)ccc1O
inactive: [1] 37.5 µM | [2] 37.2 µM | [3] 65.6 µM | [4] 37.2 µM | [5] 49.3 µM | [6] 33.8 µM | [7] 30.1 µM | [8] 15.9 µM | [9] 30.5 µM | [10] > 100 µM | [11] 20 µM | [12] 34 µM | [13] 12.9 µM | [14] 30 µM | [15] 32.7 µM | [16] 56.1 µM | [17] 35.7 µM

CC(=O)O[C@H]1C[C@H]2C(=S)Nc3ccccc3C(=S)N2C1
inactive: [1] > 100 µM | [2] > 100 µM | [3] > 100 µM | [4] > 100 µM | [5] > 100 µM | [6] > 100 µM | [7] > 100 µM | [8] > 100 µM | [9] > 100 µM | [10] > 100 µM | [11] > 100 µM | [12] > 100 µM | [13] > 100 µM | [14] > 100 µM | [15] 88.3 µM | [16] > 100 µM | [17] > 100 µM

CCSCCC(N)C(=O)O (centres undefined)
inactive: [1] > 100 µM | [2] > 100 µM | [3] > 100 µM | [4] > 100 µM | [5] > 100 µM | [6] > 100 µM | [7] > 100 µM | [8] > 100 µM | [9] > 100 µM | [10] > 100 µM | [11] > 100 µM | [12] > 100 µM | [13] > 100 µM | [14] > 100 µM | [15] > 100 µM | [16] > 100 µM | [17] > 100 µM

COC(=O)C(N)CCCC(N)C(=O)NC(C)C(=O)NC(CCC(=O)NCCNCCNc1c2ccccc2nc2cccc([N+](=O)[O-])c12)C(N)=O (centres undefined)
inactive: [1] 4.67 µM | [2] 6.28 µM | [3] 6.28 µM | [4] 10.2 µM | [5] 19 µM | [6] 13.7 µM | [7] 4.6 µM | [8] 14.7 µM | [9] 3.17 µM | [10] 35.2 µM | [11] 4.79 µM | [12] 8.51 µM | [13] 8.51 µM | [14] 12.8 µM | [15] 10.4 µM | [16] 5.06 µM | [17] 5.48 µM

CC1(C)CCCCCCC2CC2CCCCCC(C)(C)C1=O (centres undefined)
inactive: [1] 45.7 µM | [2] 63.1 µM | [3] > 100 µM | [4] 41.9 µM | [5] > 100 µM | [6] 42 µM | [7] > 100 µM | [8] 88.3 µM | [9] 66.2 µM | [10] > 100 µM | [11] > 100 µM | [12] 24.3 µM | [13] 40.6 µM | [14] > 100 µM | [15] > 100 µM | [16] 36.9 µM | [17] 36.6 µM

Oc1ccc(C(O)C2CCCCN2)cc1O (centres undefined) [RIMITEROL HYDROBROMIDE]
inactive: [1] > 100 µM | [2] > 100 µM | [3] > 100 µM | [4] > 100 µM | [5] > 100 µM | [6] > 100 µM | [7] > 100 µM | [8] > 100 µM | [9] > 100 µM | [10] > 100 µM | [11] > 100 µM | [12] > 100 µM | [13] > 100 µM | [14] > 100 µM | [15] > 100 µM | [16] 23.8 µM | [17] > 100 µM
